Measurements: patent US7763615B2, “Ecteinascidin analogs for use as antitumour agents” (priority 2001, dated 2010)

Assays:
[1] = test system: NRK-52E, normal rat kidney cells; conditions: 24 h
Description: In order to assess the cytotoxicity of the drugs to normal cells, we used 96 well plates plated at a density of 5000 cells per well (except for the FDC-P1 which were plated at 12,000 cells per well) with normal cell lines (ATCC, Table 1) maintained as per the directions of the ATCC: AML-12, normal mouse liver cells; NRK-52E, normal rat kidney cells; L8, normal rat skeletal muscle cells; FDC-P1, normal mouse myelogeous stem cells; and H9c2 (2-1), normal rat cardiac muscle cells. The cells in each plate were permitted to settle overnight before adding the test drug.
To each well (100 μl medium) 10 μl of drug in media was added at varying concentrations (1×10-10-0.01 mg/ml final concentration) and further incubated overnight at 37° C. with 5% CO2. After 24 h the following assays were performed. All experiments were repeated at least 3 times and were assayed in duplicate.
MTS assay (CellTiter 96 aqueous) was performed according to the manufacturer's (Promega) directions (for all cell types). Cell viability (mitochondrial activity) is determined via enzymatic conversion of the formazan substrate.

[2] = test system: L8, normal rat skeletal muscle cells; conditions: 24 h
[3] = test system: FDC-P1, normal mouse myelogeous stem cells; conditions: 24 h
PANC-1 = assay: cells; assay type: cell-based; conditions: PANC-1, 48 hours exposure, SRB; for CC50: read-out: LC50
How it was run: (§1)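 Human tumour lines grown in RPMI 1640 with 10% FBS were seeded at 5×10^3 cells per well, left 18 hours to attach, then exposed to samples (10 to 10^−8 μg/ml) for 48 hours. Growth was quantified by sulphorhodamine B staining of TCA-fixed cells, with absorbance read at 490 nm.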

LOVO-DOX = assay: cells; assay type: cell-based; conditions: LOVO-DOX, 48 hours exposure, SRB; for CC50: read-out: LC50
How it was run: as §1

MEL-28 = assay: cells; assay type: cell-based; conditions: MEL-28, 48 hours exposure, SRB; for CC50: read-out: LC50
How it was run: as §1

A549 = assay: cells; assay type: cell-based; conditions: A549, 48 hours exposure, SRB; for GI50: read-out: GI50; for CC50: read-out: LC50
How it was run: as §1

LNCAP = assay: cells; assay type: cell-based; conditions: LNCAP, 48 hours exposure, SRB; for CC50: read-out: LC50
How it was run: as §1

IGROV-ET = assay: cells; assay type: cell-based; conditions: IGROV-ET, 48 hours exposure, SRB; for CC50: read-out: LC50
How it was run: as §1

SK-BR3 = assay: cells; assay type: cell-based; conditions: SK-BR3, 48 hours exposure, SRB; for CC50: read-out: LC50
How it was run: as §1

HT29 = assay: cells; assay type: cell-based; conditions: HT29, 48 hours exposure, SRB; for CC50: read-out: LC50
How it was run: as §1

LOVO = assay: cells; assay type: cell-based; conditions: LOVO, 48 hours exposure, SRB; for CC50: read-out: LC50
How it was run: as §1

K562 = assay: cells; assay type: cell-based; conditions: K562, 48 hours exposure, SRB; for CC50: read-out: LC50
How it was run: as §1

IGROV = assay: cells; assay type: cell-based; conditions: for GI50 / TGI: 48 hours exposure, SRB; for CC50: read-out: LC50, 48 hours exposure, SRB
How it was run: as §1

DU145 = assay: cells; assay type: cell-based; conditions: DU145, 48 hours exposure, SRB; for CC50: read-out: LC50
How it was run: as §1

[4] = test system: H9c2 (2-1), normal rat cardiac muscle cells; conditions: 24 h
SK-OV3 = assay: Inhibition of cells growth by colorimetric assay (SRB), SK-OV3; assay type: cell-based; conditions: SK-OV3, 48 hours exposure, SRB; for CC50: read-out: LC50
Description: (§2) The finality of these assays is to interrupt the growth of a “in vitro” tumor cell culture by means of a continued exhibition of the cells to the sample to be testing.
(§3) A colorimetric type of assay, using sulphorhodamine B (SRB) reaction has been adapted for a quantitative measurement of cell growth and viability [following the technique described by Philip Skehan, et al. (1990), New colorimetric cytotoxicity assay for anticancer drug screening, J. Natl. Cancer Inst., 82:1107-1112]
(§4) This form of the assay employs 96 well cell culture microplates of 9 mm diameter (Faircloth, 1988; Mosmann, 1983). Most of the cell lines are obtained from American Type Culture Collection (ATCC) derived from different human cancer types.
(§5) Cells are maintained in RPMI 1640 10% FBS, supplemented with 0.1 g/l penicillin and 0.1 g/l streptomycin sulphate and then incubated at 37° C., 5% CO2 and 98% humidity. For the experiments, cells were harvested from subconfluent cultures using trypsin and resuspended in fresh medium before plating.
(§6) Cells are seeded in 96 well microtiter plates, at 5×10^3 cells per well in aliquots of 195 μl medium, and they are allowed to attach to the plate surface by growing in drug free medium for 18 hours. Afterward, samples are added in aliquots of 5 μl in a ranging from 10 to 10^−8 μg/ml, dissolved in DMSO/EtOH/PBS (0.5:0.5:99). After 48 hours exposure, the antitumor effect are measured by the SRB methodology: cells are fixed by adding 50 μl of cold 50% (wt/vol) trichloroacetic acid (TCA) and incubating for 60 minutes at 4° C. Plates are washed with deionized water and dried. One hundred μl of SRB solution (0.4% wt/vol in 1% acetic acid) is added to each microtiter well and incubated for 10 minutes at room temperature. Unbound SRB is removed by washing with 1% acetic acid. Plates are air dried and bound stain is solubilized with Tris buffer. Optical densities are read on a automated spectrophotometric plate reader at a single wavelength of 490 nm.
(§7) The values for mean+/− SD of data from triplicate wells are calculated. Some parameters for cellular responses can be calculated: GI=growth inhibition, TGI=total growth inhibition (cytostatic effect) and LC=cell killing (cytotoxic effect).

H-MEC-1 = assay: Inhibition of cells growth by colorimetric assay (SRB), H-MEC-1; assay type: cell-based; conditions: H-MEC-1, 48 hours exposure, SRB; for CC50: read-out: LC50
Description: as §2, §3, §4, §5, §6, §7

[5] = test system: AML-12, normal mouse liver cells; conditions: 24 h

## COc1c(C)cc2c(c1O)[C@@H]1C3[C@@H]4SC[C@]5(NC(C)Cc6c5[nH]c5ccc(O)cc65)C(=O)COC[C@@H](c5c6c(c(C)c(OC(C)=O)c54)OCO6)N3[C@@H](O)[C@H](C2)N1C (stereo partly drawn) [Compound 38]
[1]
  Kidney: 9.85E−08
[2]
  Skeletal: 1.29E−08
[3]
  Myelo: 9.66E−11
PANC-1
  GI50: 3.22 nM
  TGI: 8.37E−09 Molar
  CC50: 428 nM
LOVO-DOX
  GI50: 55.3 nM
  TGI: 8.42E−07 Molar
  CC50: 12700 nM
MEL-28
  GI50: 2.73 nM
  TGI: 5.33E−09 Molar
  CC50: 10.4 nM
A549
  TGI: 5.24E−09 Molar
  GI50: 2.38 nM
  CC50: 11.5 nM
LNCAP
  GI50: 0.2 nM
  TGI: 7.21E−10 Molar
  CC50: 3.07 nM
IGROV-ET
  GI50: 15.7 nM
  TGI: 6.59E−08 Molar
  CC50: 6510 nM
SK-BR3
  GI50: 1.07 nM
  TGI: 3.38E−09 Molar
  CC50: 9.54 nM
HT29
  GI50: 4.2 nM
  TGI: 1.69E−08 Molar
  CC50: 12700 nM
LOVO
  GI50: 3.55 nM
  TGI: 1.03E−08 Molar
  CC50: 12700 nM
K562
  GI50: 0.422 nM
  TGI: 8.18E−10 Molar
  CC50: 3.15 nM
IGROV
  GI50: 0.757 nM
  TGI: 2.89E−09 Molar
  CC50: 8.4 nM
DU145
  GI50: 2.04 nM
  TGI: 6.80E−09 Molar
  CC50: 12700 nM
[4]
  Heart: 2.96E−09
SK-OV3
  GI50: 2.55 nM
  TGI: 7.13E−09 Molar
  CC50: 12700 nM
H-MEC-1
  GI50: 3.06 nM
  TGI: 8.93E−09 Molar
  CC50: 12700 nM
[5]
  Liver: 1.39E−10

## COc1c(C)cc2c(c1O)[C@@H]1C3[C@@H]4SC[C@]5(C(=O)COC[C@@H](c6c7c(c(C)c(OC(C)=O)c64)OCO7)N3[C@@H](O)[C@H](C2)N1C)c1[nH]c2ccccc2c1CCN5C (stereo partly drawn) [Compound 40]
[1]
  Kidney: 2.95E−08
[2]
  Skeletal: 2.11E−07
[3]
  Myelo: 4.08E−08
PANC-1
  GI50: 2.82 nM
  TGI: 7.17E−09 Molar
  CC50: 128 nM
LOVO-DOX
  GI50: 30.4 nM
  TGI: 9.12E−08 Molar
  CC50: 551 nM
MEL-28
  GI50: 19.6 nM
  TGI: 4.70E−08 Molar
  CC50: 112 nM
A549
  TGI: 4.11E−09 Molar
  GI50: 2.41 nM
  CC50: 7.02 nM
LNCAP
  GI50: 1.02 nM
  TGI: 2.48E−09 Molar
  CC50: 5.88 nM
IGROV-ET
  GI50: 2.42 nM
  TGI: 8.66E−09 Molar
  CC50: 4800 nM
SK-BR3
  GI50: 2.56 nM
  TGI: 6.50E−09 Molar
  CC50: 28 nM
HT29
  GI50: 3.26 nM
  TGI: 1.06E−08 Molar
  CC50: 13000 nM
LOVO
  GI50: 2.51 nM
  TGI: 5.98E−09 Molar
  CC50: 23.8 nM
K562
  GI50: 0.843 nM
  TGI: 6.87E−09 Molar
  CC50: 80 nM
IGROV
  GI50: 1.96 nM
  TGI: 4.17E−09 Molar
  CC50: 8.86 nM
DU145
  GI50: 2.35 nM
  TGI: 6.41E−09 Molar
  CC50: 2450 nM
SK-OV3
  GI50: 2.9 nM
  TGI: 6.28E−09 Molar
  CC50: 13 nM
H-MEC-1
  GI50: 2.45 nM
  TGI: 5.31E−09 Molar
  CC50: 11.5 nM
[5]
  Liver: 3.86E−08
